Results from US20250144050A1, “AMINOTHIOL-CONJUGATES, COMPOSITIONS, AND METHODS OF USE THEREOF” (THE BURLINGTON HC RESEARCH GROUP, INC., priority 2021, published 2025).

Columns and labels:
[1] = test system: A549; experiment: Trypan Blue cell count after 48 hour exposure; format: cell-based, human; details: read-out: Average Growth Inhibitory Dose 50% [EC50], Lung CA (A549)
Method: (§1) To evaluate the anticancer activity of 4-arm star polyethylene glycol conjugated to WR-1065 (4SP65), the anticancer efficacy of 4SP65 was determined in some of the same cell lines used by NIH/NCI, and the methodology used was the same as is used by the NCI to evaluate chemotherapeutic agents currently in use (O'Connor et al., “Characterization of the p53 Tumor Suppressor Pathway in Cell Lines of the National Cancer Institute Anticancer Drug Screen and Correlations With the Growth-Inhibitory Potency of 123 Anticancer Agents,” Cancer Res. 57 (19): 4285-300 (1997), which is hereby incorporated by reference in its entirety). Testing of 6 cancer types was completed: (i) breast cancer (MDA-MB-231 cells), (ii) lung cancer (A549), (iii) prostate cancer cell line (LNCaP), (iv) myelogenous leukemia (HL60 cells), (v) ovarian cancer (SK-OV-3), and (vi) prostate cancer (DU-145).
(§2) Each cell line was grown in medium as recommended by the ATCC or as presented in the literature for that cell line. All cells were cultured in a water jacket incubator at 36-37° C. and in the presence of 5% CO2. To ensure optimal growth and viability, all cells were grown on plates coated with FNC (In Vitrogen). Cells were refed with growth medium twice weekly until they had reached 60 to 70% confluence. At this point, the medium was replaced with growth medium supplemented with 4SP65 at doses ranging from 0 to up to 300 micromolar. Cells were allowed to grow in the presence of this supplemented medium for 48 hours, and then they were removed by trypsinization, stained with Trypan Blue and counted in a hemocytometer. Three to four replicates for each dose group per experiment were performed. The percentage cell death was determined by comparing the average number of surviving cells exposed to 4SP65 versus the average number of surviving sham exposed cells.

[2] = test system: MDA-MB-231 cells; experiment: Trypan Blue cell count after 48 hour exposure; format: cell-based, human; details: read-out: Average Growth Inhibitory Dose 50% [EC50], Breast CA (MDA-MB-231)
Method: as §1, §2

[3] = test system: HL60 cells; experiment: Trypan Blue cell count after 48 hour exposure; format: cell-based, human; details: read-out: Average Growth Inhibitory Dose 50% [EC50], Myelogenous Leukemia (HL60)
Method: as §1, §2

[4] = test system: DU-145; experiment: Trypan Blue cell count after 48 hour exposure; format: cell-based, human; details: read-out: Average Growth Inhibitory Dose 50% [EC50], Prostate CA (DU-145)
Method: as §1, §2

[5] = test system: SK-OV-3; experiment: Trypan Blue cell count after 48 hour exposure; format: cell-based, human; details: read-out: Average Growth Inhibitory Dose 50% [EC50], Ovarian CA (SK-OV-3)
Method: as §1, §2

[6] = test system: LNCaP; experiment: Trypan Blue cell count after 48 hour exposure; format: cell-based, human; details: read-out: Average Growth Inhibitory Dose 50% [EC50], Prostate cancer cell line (LNCaP)
Method: as §1, §2

[7] = test system: HEK-293t cells; format: cell-based
Method: (§3) To determine potential cytostatic or cytocidal effects of BRG prodrugs in immortalized, non-tumorigenic cells, Vero, HEK-293t, LP9, and HPM3 cells were exposed to 4SP65 while only Vero cells also were treated with 1LP65. […] Comparisons across other dose-response metrics could not be made because such levels of effects were not induced in NHMECs exposed to 4SP65. […] Since cytostatic and cytolytic effects at the TGI and LC50/99 levels were induced in Vero cells exposed to 1LP65 but not in NHMECs, there is a significant difference in the effects of 1LP65 in Vero cells compared to NHMECs, but p values based upon t-test evaluations cannot be defined due to lack of numerical data.

[8] = test system: LP9 cells; format: cell-based
Method: as §3

[9] = test system: H1437 NSCLC cells; experiment: Alamar Blue (resazurin) cellular reducing capacity; format: cell-based, human; details: until cell numbers reduced to approximately 50% of controls
Excerpt: The aminothiol-conjugates of the present disclosure (e.g., 4SP65 and 1LP65) are disulfides that require reduction by glutathione or thioredoxin for the two constituent molecules (WR1065 and PEG-SH scaffold) to be released. […] After an aminothiol-conjugate of the present disclosure (e.g., 4SP65 and 1LP65) enters the cytoplasm, either glutathione or thioredoxin reduces the BRG disulfide bond (Rxn #1) to yield reduced WR1065 and PEG-SH scaffold. In normal cells with a reducing cytosolic redox balance, evidence of formation of free radical intermediates during this reaction has not been reported, but formation of […] has been reported (Nagy, P., “Kinetics and Mechanisms of Thiol-Disulfide Exchange Covering Direct Substitution and Thiol Oxidation-Mediated Pathways,” Antioxid Redox Signal 18 (13): 1623-1641 (2013), which is hereby incorporated by reference in its entirety). Conversely, in cancer cells where the cellular environment is shifted towards oxidizing conditions, there is evidence that reactive species such as thiyl free radicals can be formed (Nagy, P., “Kinetics and Mechanisms of Thiol-Disulfide Exchange Covering Direct Substitution and Thiol Oxidation-Mediated Pathways,” Antioxid. Redox Signal 18 (13): 1623-1641 (2013), which is hereby incorporated by reference in its entirety), which can have adverse effects in neoplastic cells. […]

[10] = test system: TOV21G ovarian cancer cells; format: cell-based
Method: Trypan Blue exclusion was applied as a complementary confirmation probe for cell death.
Statistical comparisons of differences in individual dose-response metrics between individual/paired drug treatments and various cell lines were conducted using the Student's t-test, with P-values <0.05 considered significant.
Relative cell growth inhibition values for differing levels each drug alone and in combination were input into SynergyFinder to generated dose-response curves for each drug alone, to produce a dose-response matrix, to visualize the distribution of areas of differing degrees of synergism in a 2-dimension heatmap and 3-dimension volcano plot, and to calculate average and maximum synergy scores in selected human cancer cell lines. […] Synergy scores <10 means that the interaction between two drugs was likely to be antagonistic; scores from −10 to 10 means the interaction between two drugs was likely to be additive; and scores >10 means the interaction between two drugs was likely to be synergistic.

Substance 4-star PEG-S-S-WR1065 [4SP65] has an EC50 [1] of 15 µM, an EC50 [2] of 4.5 µM and an EC50 [3] of 3000 nM. For the same substance, the EC50 [4] was 6.7 µM, the EC50 [5] was 5 µM and the EC50 [6] was 9.5 µM. The CC50 [7] was 60.6 µM, the GI50 ([7]; HEK-293t) was 15.8 µM and the LC99 ([7]; HEK-293t) was 62.4 µM. For the same substance, the TGI ([7]; HEK-293t) was 58.8 µM, the CC50 [8] was 19 µM and the GI50 ([8]; LP9) was 9.2 µM. For the same substance, the TGI ([8]; LP9) was 13.5 µM, the “cellular reducing capacity relative to control cells” value [9] was roughly 100% and the CC50 [10] was 2700 ± 100 nM. The “LC99, amount of each drug in combination” value ([10]; TOV21G, 4SP65-cisplatin combined, 48 h) was 0.95 µM, the GI50 ([10]; TOV21G, each drug alone, 48 h) was 930 ± 370 nM and the IC50 ([10]; TOV21G, each drug alone, 48 h) was 1200 ± 300 nM. It also gave an LC99 ([10]; TOV21G, each drug alone, 48 h) of 3.0 µM and a TGI ([10]; TOV21G, each drug alone, 48 h) of 2.0 ± 0.4 µM.
